According to patent US20240269350A1, “I[…] FOR TREATING CENTRAL NERVOUS SYSTEM DISORDERS” (priority 2021, published 2024):
Like-named read-outs stand apart in the source and are kept apart here.

How the values were obtained:
[1] = oral administration, cited from earlier work; for AUC1-12h cerebral spinal fluid (CSF)/plasma ratio: mean
[2] = tartrate salt form; cited from earlier work
[3] = Oral rivastigmine pharmacokinetics and estimated delivery to CSF (Exelon label); format: in vivo; settings: for daily dose delivered to CSF: plasma volume 2750 mL, CSF volume 150 mL
Procedure: Drug coating and formulation development. The absolute bioavailability of oral rivastigmine is approximately 40%, and the AUC1-12h cerebral spinal fluid (CSF)/plasma ratio is about 40% (Novartis Exelon® Capsules and Oral Solution Prescribing Information). An estimated 0.87% of the rivastigmine oral dose is absorbed and distributed into the CSF. Thus, the daily CSF uptake of this drug is estimated to be between 26-105 μg. As a starting point for the formulation development, we will first target to formulate a matrix loaded with rivastigmine which will be released over 30 days in a near linear manner. Bilateral administration of the rivastigmine matrix would result in approximately 21-107 μg rivastigmine delivered to CSF/day, assuming a CSF bioavailability between 10-50%.
For oral administration, delivery, an absolute bioavailability of Rivastigmine is about 40% and a mean AUC (area under the curve) 1-12 hr CSF/Plasma is about 40% (Exelon Label). The daily doses delivered to CSF are 26 μg/day, 52 μg/day, 79 μg/day, and 105 μg/day for the oral doses, equating to 1.5 mg BID, 3 mg BID, 4.5 mg BID, and 6 mg BID, respectively. For this estimation, a plasma volume of 2750 mL and a CSF volume of 150 mL are used.

[4] = approved oral, patch or i.v. administration; cited from earlier work

Compound | AUC1-12h cerebral spinal fluid (CSF)/plasma ratio [1] | AUC1-12h cerebral spinal fluid (CSF)/plasma ratio ([1]; listed as rivastigmine) | absolute bioavailability [1] | absolute bioavailability ([1]; listed as rivastigmine) | water solubility [2] | daily dose delivered to CSF ([3]; oral 1.5 mg BID) [µg/day] | daily dose delivered to CSF ([3]; oral 3 mg BID) [µg/day] | daily dose delivered to CSF ([3]; oral 4.5 mg BID) [µg/day] | daily dose delivered to CSF ([3]; oral 6 mg BID) [µg/day] | fraction of oral dose absorbed and distributed into the CSF ([3]; oral dose, estimated) [%] | daily CSF uptake ([3]; oral dosing, estimated) [µg] | Side effects [4]
CCN(C)C(=O)Oc1cccc([C@H](C)N(C)C)c1 [Rivastigmine] | about 40% | approximately 40% | about 40% | approximately 40% | highly water-soluble | 26 | 52 | 79 | 105 | 0.87 | 26 to 105 | –
CC12CC3CC(C)(C1)CC(N)(C3)C2 [Memantine] | – | – | – | – | – | – | – | – | – | – | – | Headache, constipation,
